Results as given in patent US12305197B2, “Proliferation method” (Kao Corporation, priority 2019, dated 2025).

Legend:
[1] = test system: H3N2 influenza virus strain (A/Memphis/l/1971); type: cell-based
[2] = test system: H1N1pdm influenza virus strain (A/Shizuoka/830/2009); type: cell-based
[3] = test system: H1N1 (laboratory strain) influenza virus strain; type: cell-based, influenza A virus
[4] = test system: influenza B virus strain (B/Lee/1940); type: cell-based
[5] = test system: H3N2 influenza virus strain (A/Memphis/l/1971); type: cell-based; remark: listed apart in the source
[6] = test system: H1N1pdm influenza virus strain (A/Shizuoka/830/2009); type: cell-based; remark: listed apart in the source
[7] = test system: H1N1 (laboratory strain) influenza virus strain; type: cell-based, influenza A virus; remark: listed apart in the source
[8] = test system: influenza B virus strain (B/Lee/1940); type: cell-based; remark: listed apart in the source
[9] = test system: H1N1 influenza virus strain (A/Puerto Rico/8/1934); settings: in vivo

Pro-Met-Leu-Lys-Glu (PMLKE) [SEQ ID NO: 2]
HA titer of influenza virus, low Bax inhibitor concentration [1]: increase in the HA titer of the influenza virus was also observed | HA titer of influenza virus, low Bax inhibitor concentration [2]: increase in the HA titer of the influenza virus was also observed | HA titer of influenza virus, low Bax inhibitor concentration [3]: increase in the HA titer of the influenza virus was also observed | HA titer of influenza B virus [4]: increases | amount of influenza virus (virus proliferation capacity) by focus assay, low concentration [5]: enhances the virus proliferation capacity | amount of influenza virus (virus proliferation capacity) by focus assay, low concentration [6]: enhances the virus proliferation capacity | amount of influenza virus (virus proliferation capacity) by focus assay, low concentration [7]: enhances the virus proliferation capacity | amount of influenza B virus (virus proliferation capacity) by plaque assay [8]: exhibit the effect of enhancing the virus proliferation capacity

Val-Ser-Ala-Leu-Lys (VSALK) [SEQ ID NO: 7]
increase of viral titer versus control group [9]: 1.27 times | viral titer compared with 10-fold control group (5×10^3 EID50/chicken egg) [9]: higher

Val-Pro-Met-Leu-Lys (VPMLK) [SEQ ID NO: 1]
HA titer of influenza virus [1]: increases | HA titer of influenza virus, low Bax inhibitor concentration [1]: increases | HA titer of influenza virus, time-dependent [1]: increases the HA titer of the influenza virus strains in the early stages of the culture | HA titer of influenza virus [2]: increases | HA titer of influenza virus, low Bax inhibitor concentration [2]: increases | HA titer of influenza virus, time-dependent [2]: increases the HA titer of the influenza virus strains in the early stages of the culture | HA titer of influenza virus, low Bax inhibitor concentration [3]: increases | HA titer of influenza B virus [4]: increases | amount of influenza virus (virus proliferation capacity) by focus assay [5]: exhibits the effect of enhancing the virus proliferation capacity | amount of influenza virus (virus proliferation capacity) by focus assay [6]: exhibits the effect of enhancing the virus proliferation capacity | amount of influenza B virus (virus proliferation capacity) by plaque assay [8]: exhibit the effect of enhancing the virus proliferation capacity
